Laboratory results reported in patent US11918597B2, “Triple combination therapies for anti-aging” (LUNELLA BIOTECH, INC., priority 2018, dated 2024).
pIC50: −log10 of the molar value. Like-named read-outs stand apart in the source and are kept apart here. Each block holds one compound with its values, some of them ahead of it.

Experiments:
[1] = tested on: senescent MRC-5 cells; test: BrdU-induced senescence senolytic assay (SRB / xCELLigence); assay type: cell-based, human; conditions: BrdU-treated MRC-5 fibroblasts; even at concentrations as low as 25 μM
Procedure: (§1) Bromodeoxyuridine (5-bromo-2′-deoxyuridine), also known as BrdU, was used to induce senescence. BrdU is an analog of the nucleoside thymidine commonly used to identify proliferating cells. BrdU induces controlled DNA damage, and drives cells towards senescence with high efficiency. The BrdU assay of the present approach calls for subjecting normal fibroblasts to prolonged culture (8-days) in the presence of BrdU at 100 μM to induce controlled DNA-damage and senescence. […] Then, isogenically-matched cultures of normal and senescent fibroblasts may be used for drug screening to identify drugs having senolytic activity. Senolytic activity may be detected using the sulforhodamine B assay, also known in the art as the SRB assay. This assay measures the amount of protein remaining attached to the tissue-culture dishes, and is a surrogate marker for cell viability. This approach may be used to rapidly screen compounds, including clinically-approved drugs, such as, for example, antibiotics. For example, in embodiments described herein, the present approach was used to screen erythromycin family members, including azithromycin and roxithromycin, among other compounds and conjugates. It should be appreciated that the present approach may be used to screen other compounds.

[2] = tested on: CSCs; test: CSC propagation / CSC inhibition activity (cell line not stated); assay type: cell-based
[3] = tested on: rat heart; conditions: conditions of hypoxia, Vitamin C alone; cited from earlier work
[4] = tested on: MCF7 cells; test: Metabolic flux analysis (Seahorse XFe96, OCR and ECAR); assay type: cell-based, human; conditions: MCF7 monolayers pre-treated 3-days, doxycycline 1 μM, azithromycin 1 μM, Vitamin C 250 μM as applicable
Procedure: Metabolic Flux Analysis: Real-time oxygen consumption rates (OCR) and extracellular acidification rates (ECAR) rates in MCF7 cells were determined using the Seahorse Extracellular Flux (XFe96) analyzer (Seahorse Bioscience, USA). Briefly, 1.5×10^4 cells per well were seeded into XFe96 well cell culture plates, and incubated overnight to allow cell attachment. Then, cells were treated with antibiotics for 72 h. Vehicle-alone control cells were processed in parallel. After 72 hours of incubation, cells were washed in pre-warmed XF assay media (or for OCR measurement, XF assay media supplemented with 10 mM glucose, 1 mM Pyruvate, 2 mM L-glutamine and adjusted at 7.4 pH). Cells were then maintained in 175 μL/well of XF assay media at 37° C., in a non-CO2 incubator for 1 hour. During the incubation time, we loaded 25 μL of 80 mM glucose, 9 μM oligomycin, and 1M 2-deoxyglucose (for ECAR measurement) or 10 μM oligomycin, 9 μM FCCP, 10 μM rotenone, 10 μM antimycin A (for OCR measurement), in XF assay media into the injection ports in the XFe96 sensor cartridge. Measurements were normalized by protein content (Bradford assay). Data sets were analyzed using XFe96 software and GraphPad Prism software, using one-way ANOVA and Student's t-test calculations. All experiments were performed in quintuplicate, three times independently.

[5] = tested on: MCF7 cells; test: Mammosphere formation assay (CSC propagation); assay type: cell-based, human; conditions: for inhibition at 250 µM: suspension treatment 5-days, doxycycline 1 μM, azithromycin 1 μM, Vitamin C 250 μM, read-out: MFE (% Inhibition ± SD); for pIC50: MCF7 cells (FIG. 15), read-out: half maximal inhibitory concentration (IC50), mammosphere assay
Procedure: The following paragraphs discuss laboratory data and analysis for select embodiments of the present approach. Doxycycline and azithromycin were tested alone and in combination at low concentrations to evaluate the resulting inhibitory effect on mammosphere formation. FIGS. 1A-1C summarize mammosphere formation data for varying concentrations and combinations.
The temporal effects of pre-treatment on the efficacy of the present approach have been evaluated in the pre-clinical setting, using CSC propagation as the measurement. […] This may be due to MCF7 cells' ability to induce oxidative stress, driving an anti-oxidant response. Given these […] results, it appears embodiments of the present approach that simultaneously co-administer all three therapeutic agents appear to have the most significant impact on the CSC population, and are preferred. […] However, some embodiments may call for administering therapeutic agents within a narrow window, such as 1-3 hours, over multiple days (e.g., 3-7 days in some embodiments, 4-14 days in some embodiments). The antibiotics may be administered in oral form (e.g., pill or tablet), while the Vitamin C is administered intravenously in some embodiments. In others, all three therapeutic agents may be administered orally, either as separate pills or tabs, or as a single concoction containing each therapeutic agent.
Mammosphere Formation Assay: A single cell suspension was prepared using enzymatic (lx Trypsin-EDTA, Sigma Aldrich, #T3924), and manual disaggregation (25 gauge needle). Cells were plated at a density of 500 cells/cm2 in mammosphere medium (DMEM-F12+B27+20 ng/ml EGF+PenStrep) under non-adherent conditions, in culture dishes pre-coated with (2-hydroxyethylmethacrylate) (poly-HEMA, Sigma, #P3932), called “tumor-sphere plates”. Vehicle alone (DMSO) control cells were processed in parallel. Cells were grown for 5 days and maintained in a humidified incubator at 37° C. After 5 days of culture, 3D mammospheres >50 μm were counted using an eye piece (“graticule”), and the percentage of cells plated which formed spheres was calculated and is referred to as percent mammosphere formation (MFE, and was normalized to one (1=100% MSF).

[6] = tested on: U937 cells; conditions: 15 minutes, media containing 3 μM Vitamin C; cited from earlier work
[7] = oral administration; cited from earlier work
[8] = tested on: bulk MCF7 cells; test: Cell viability, bulk MCF7 cells; assay type: cell-based, human; conditions: range of concentrations, up to 20 μM
Source text: Embodiments of therapeutic agents conjugated with targeting signals have shown less toxicity in bulk cancer cells and normal fibroblasts compared to unconjugated therapeutic agents. For example, FIGS. 17A and 17B show cell viability data for doxycycline and the doxycycline-myristate conjugate shown as compound [1], for bulk MCF7 cells and bulk BJ cells, respectively. The data represents cell viability expressed as a percentage of a control. […] Similar behavior has been seen in other therapeutic agents conjugated with targeting signals.

[9] = tested on: bulk BJ cells; test: Cell viability, bulk BJ cells; assay type: cell-based, human; conditions: bulk BJ cells (normal fibroblasts); range of concentrations, up to 20 μM
Procedure: as §1, with “For example, in embodiments described herein, the present approach was used to screen erythromycin family members, including azithromycin and roxithromycin, among other compounds and conjugates. It should be appreciated that the present approach may be used to screen other compounds.” left out
Embodiments of therapeutic agents conjugated with targeting signals have shown less toxicity in bulk cancer cells and normal fibroblasts compared to unconjugated therapeutic agents. […] The data represents cell viability expressed as a percentage of a control. […]

[10] = tested on: senescent fibroblasts; test: Senolytic activity on senescent fibroblasts; assay type: cell-based; conditions: azithromycin by itself
Source text: Embodiments of the present approach also have implications for improving health-span and life-span. Azithromycin, by itself, is an FDA-approved drug with remarkable senolytic activity that targets and removes senescent fibroblasts, such as myo-fibrobasts. This senolytic activity has considerable efficiency, approaching nearly 97%. The accumulation of pro-inflammatory senescent cells is thought to be the primary cause of many aging-associated diseases, such as heart disease, diabetes, dementia and cancer, for example. Since cancer-associated fibroblasts (CAFs) are senescent myo-fibroblasts, with tumor promoting activity, triple combination embodiments of the present approach with Azithromycin may also effectively target the glycolytic tumor stroma of aggressive and metastatic cancers, especially those bearing the metabolic hallmarks of the “Reverse Warburg Effect.” In some embodiments, the composition prevents acquisition of a senescence-associated secretory phenotype. In some embodiments, the composition facilitates tissue repair and regeneration. In some embodiments, the composition increases at least one of organismal life-span and health-span.

Compound: CCCCCCCCCCCCCC(=O)N(C)[C@H]1C[C@@H](C)O[C@@H](O[C@@H]2[C@@H](C)[C@H](O[C@@H]3C[C@@](C)(OC)[C@@H](O)[C@H](C)O3)[C@@H](C)C(=O)O[C@H](CC)[C@@](C)(O)[C@H](O)[C@@H](C)N(C)C[C@H](C)C[C@@]2(C)O)[C@@H]1O [azithromycin—fatty acid conjugate, N-[(2S,3R,4S,6R)-2-[ [(2R,3S,4R,5R,8R,10R,11R,12S,13S,14R)-2-ethyl-3,4,10-trihydroxy-13-[(2S,4R,5S,6S)-5-hydroxy-4-methoxy-4,6-dimethyl-tetrahydropyran-2-yl]oxy-3,5,6,8,10,12,14-heptamethyl-15-oxo-1-oxa-6-azacyclopentadec-11-yl]oxy]-3-hydroxy-6-methyl-tetrahydropyran-4-yl]-N-methyl-tetradecanamide]
- senescent MRC-5 cells targeted (final cell index after 5 days, xCELLigence) [1]: ~100%

Compound: CCCCCCCCCCCCCC(=O)N(C)[C@H]1C[C@@H](C)O[C@@H](O[C@@H]2[C@@H](C)[C@H](O[C@H]3C[C@@](C)(OC)[C@@H](O)[C@H](C)O3)[C@@H](C)C(=O)O[C@H](CC)[C@@](C)(O)[C@H](O)[C@@H](C)N(C)C[C@H](C)C[C@@]2(C)O)[C@@H]1O [Compound [15]]
- potency for CSCs compared to azithromycin alone [2]: improved
- selectivity for CSCs compared to azithromycin alone [2]: improved

Compound: O=C1O[C@H]([C@@H](O)CO)C(O)=C1O [Vitamin C, Ascorbic Acid]
- increase of mitochondrial ATP production [3]: up to 1.5 fold
- ATP production / ATP levels [4]: significantly increased
- basal and maximal respiration [4]: significantly increased
- glycolysis / glycolytic function (ECAR) [4]: significantly increased
- glycolytic reserve [4]: significantly increased
- glycolytic reserve capacity [4]: decreasing
- oxidative mitochondrial metabolism (OCR, mitochondrial oxygen consumption) [4]: significantly increased
- ATP production / ATP levels ([4]; listed as low-dose Vitamin C): increased
- basal and maximal respiration ([4]; listed as low-dose Vitamin C): increased
- glycolysis / glycolytic function (ECAR) ([4]; listed as low-dose Vitamin C): increased
- oxidative mitochondrial metabolism (OCR, mitochondrial oxygen consumption) ([4]; listed as low-dose Vitamin C): increases
- inhibition at 250 µM ([5]; Homo sapiens, MCF7, Monolayer pre-treatment D + A 7-days): 39.1%
- inhibition at 250 µM ([5]; Homo sapiens, MCF7, Monolayer pre-treatment Vit C 7-days): 49.2%
- Vitamin C level reached in the mitochondria [6]: 5 mM
- peak Vitamin C concentration in blood/serum/plasma [7]: about 250 μM

- pIC50 ([5]; Homo sapiens): 5.46
Compound: CCCCCCCCCCCCCC(=O)Nc1ccc2c(c1O)C(=O)C1=C(O)[C@]3(O)C(=O)C(C(N)=O)=C(O)[C@@H](N(C)C)C3[C@@H](O)C1[C@H]2C (stereo partly drawn) [doxycycline-myristate conjugate, (4S,5S,6R,12aS)-4-(dimethylamino)-3,5,10,12,12a-pentahydroxy-6-methyl-1,11-dioxo-9-(tetradecanoylamino)-4a,5,5a,6-tetrahydro-4H-tetracene-2-carboxamide]
- inhibition at 2.5 µM ([5]; Homo sapiens, MCF7, 2.5 μM, read-out: inhibition of MCF7 mammosphere formation relative to the control): 40 to 60%
- potency in mammosphere assay compared with doxycycline (FIG. 14) ([5]; MCF7, 1.5 μM, 3 μM, 6 μM, 12 μM): more potent than unconjugated doxycycline
- toxicity (cell viability as percentage of control) [8]: less toxic than doxycycline
- toxicity (cell viability as percentage of control) [9]: less toxic than doxycycline
- CSC inhibition activity compared with the unconjugated antibiotic ([2]; fatty acid moiety is myristate (n is 12)): better CSC inhibitory properties

- pIC50 ([5]; Homo sapiens): 4.74
Compound: C[C@H]1c2cccc(O)c2C(=O)C2=C(O)[C@]3(O)C(=O)C(C(N)=O)=C(O)[C@@H](N(C)C)[C@@H]3[C@@H](O)[C@@H]21 [doxycycline]

Compound: CC[C@H]1OC(=O)[C@H](C)[C@@H](O[C@H]2C[C@@](C)(OC)[C@@H](O)[C@H](C)O2)[C@H](C)[C@@H](O[C@@H]2O[C@H](C)C[C@H](N(C)C)[C@H]2O)[C@](C)(O)C[C@@H](C)CN(C)[C@H](C)[C@@H](O)[C@]1(C)O [azithromycin]
- inhibition of mammosphere formation ([5]; alone at low concentrations (0.1 μM and 1 μM)): little or no effect
- senolytic activity, efficiency of removing senescent fibroblasts [10]: ~97%
